Assay results: publication PMC12526203, “Multicomponent Synthesis of Multi-Target Quinazolines Modulating Cholinesterase, Oxidative Stress, and Amyloid Aggregation Activities for the Therapy of Alzheimer’s Disease” (Molecules, 2025)
Values joined by “and” are separate entries in the source; they are usually repeats but may differ in a detail not shown here. Equal values may be shown once. “Also recorded” adds a separate entry of the source. Read-outs that look alike come from different tables or passages of the source.

Legend:
[1] = ORAC-FL (Oxygen Radical Absorbance Capacity by Fluorescence) assay; details: Trolox equivalents
Method: Briefly, fluorescein and the test compound were pre-incubated in a black 96-well microplate (Nunc) at 37 °C for 15 min. Then, 2,2′-azobis(amidinopropane) dihydrochloride was rapidly added using the integrated injector of a Varioskan Flash plate reader (Thermo Scientific). […] Each experiment was conducted in triplicate, with a minimum of three independent assays performed per compound.

[2] = biological target: T1, Aβ1–42 (Homo sapiens, UniProt P05067); assay: Aβ1–42 self-aggregation, thioflavin T-based fluorometric assay; type: biochemical; details: ThT assay; for inhibition at 50 µM (stock): [Aβ] = [Inhibitor] = 50 μM (Figure 1 legend)
T1 construct: purchased Merck
Method: Curcumin was used as a positive control.
A ThT fluorescence assay evaluated the effect of the test compounds on Aβ1−42 fibril formation. Aβ stock solutions were diluted to 50 μM in ultrapure water before use. […] Control samples were prepared by replacing Aβ with 50 mM phosphate buffer (pH 7.4), with or without the inhibitors. After incubation, samples were diluted to 360 μL with 50 mM glycine-NaOH buffer (pH 8.0) containing thioflavin T (5 μM).

[3] = biological target: T2, equine BuChE (eqBuChE) (Equus caballus, UniProt P81908); assay: biochemical; type: biochemical; details: for inhibition at 10 µM: read-out: % inhibition of eqBuChE at 10 μM (footnote c); for IC50: pH 8.0
T2 construct: purchased Merck
Method: (§1) The inhibitory activities of the tested compounds against EeAChE and eqBuChE were determined using the spectrophotometric procedure based on Ellman’s method. […] After a pre-incubation step, acetylthiocholine iodide (105 µL, final concentration 0.35 mM) or butyrylthiocholine iodide (150 µL, final concentration 0.5 mM) was added, and the mixture was incubated for an additional 15 min.

[4] = biological target: T3, Electrophorus electricus AChE (EeAChE) (Electrophorus electricus, UniProt O42275); assay: biochemical; details: for inhibition at 10 µM: read-out: % inhibition of EeAChE at 10 μM (footnote c); for IC50: Ellman method, pH 8.0
T3 construct: purchased Merck
Method: as §1

[5] = reported as a standard antioxidant; cited from earlier work

T2 sequence (P81908 whole entry): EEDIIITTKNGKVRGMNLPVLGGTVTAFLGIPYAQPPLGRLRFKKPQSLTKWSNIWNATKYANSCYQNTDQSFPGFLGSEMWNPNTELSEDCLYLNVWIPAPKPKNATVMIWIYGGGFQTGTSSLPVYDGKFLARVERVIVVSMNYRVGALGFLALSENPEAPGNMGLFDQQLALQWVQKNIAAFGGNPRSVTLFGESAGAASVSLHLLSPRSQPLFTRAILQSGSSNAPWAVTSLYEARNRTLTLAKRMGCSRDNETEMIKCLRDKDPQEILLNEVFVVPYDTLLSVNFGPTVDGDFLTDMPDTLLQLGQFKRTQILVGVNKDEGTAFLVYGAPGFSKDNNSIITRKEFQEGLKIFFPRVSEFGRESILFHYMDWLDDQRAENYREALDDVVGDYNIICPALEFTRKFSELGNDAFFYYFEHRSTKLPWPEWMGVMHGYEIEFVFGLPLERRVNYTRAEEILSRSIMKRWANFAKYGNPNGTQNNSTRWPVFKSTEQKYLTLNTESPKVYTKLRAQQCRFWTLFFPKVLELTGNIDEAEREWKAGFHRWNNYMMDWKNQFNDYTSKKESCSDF
T3 sequence (O42275 24-633): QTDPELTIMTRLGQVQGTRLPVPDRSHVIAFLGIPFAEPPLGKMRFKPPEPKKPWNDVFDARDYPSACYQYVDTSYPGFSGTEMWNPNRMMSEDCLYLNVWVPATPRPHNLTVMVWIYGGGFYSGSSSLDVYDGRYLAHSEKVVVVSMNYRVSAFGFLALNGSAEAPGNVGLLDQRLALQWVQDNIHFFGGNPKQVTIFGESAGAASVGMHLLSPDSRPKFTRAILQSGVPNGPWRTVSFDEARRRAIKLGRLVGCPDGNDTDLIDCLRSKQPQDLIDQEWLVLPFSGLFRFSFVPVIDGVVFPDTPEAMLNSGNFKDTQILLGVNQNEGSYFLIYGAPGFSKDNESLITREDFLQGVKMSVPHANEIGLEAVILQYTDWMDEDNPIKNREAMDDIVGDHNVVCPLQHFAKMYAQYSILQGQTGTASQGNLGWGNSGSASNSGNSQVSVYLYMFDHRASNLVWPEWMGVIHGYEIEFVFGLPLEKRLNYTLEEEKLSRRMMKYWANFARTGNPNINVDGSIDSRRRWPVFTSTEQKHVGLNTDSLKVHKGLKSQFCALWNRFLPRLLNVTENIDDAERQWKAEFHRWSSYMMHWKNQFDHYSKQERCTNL
T1 sequence (P05067 672-713): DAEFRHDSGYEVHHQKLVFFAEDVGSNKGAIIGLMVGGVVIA

Clc1ccc(Nc2ncnc3ccccc23)cc1 [3p, 4-(4-Chlorophenyl)aminoquinazoline]
ORAC [1]: 0.40 ± 0.07 TE
Inhibition of Aβ1–42 self-aggregation (in words) [2]: inactive; also recorded: did not display measurable activity
inhibition at 10 µM [3]: < 50%
inhibition at 10 µM [4]: < 50%

CCc1nc(Nc2cc(OC)cc(OC)c2)c2ccccc2n1 [3f, 2-ethyl-4-(3,5-Dimethoxyphenyl)aminoquinazoline]
ORAC [1]: 1.29 ± 0.08 TE
inhibition at 50 µM (stock) [2]: 13.6%
IC50 ([3]; Ellman method): 8.5 ± 1.16 µM
inhibition at 10 µM [4]: < 50%

c1ccc(Nc2ncnc3ccccc23)cc1 [3a, 4-anilinoquinazoline]
inhibition at 50 µM (stock) [2]: 10.3%
inhibition at 10 µM [3]: < 50%
inhibition at 10 µM [4]: < 50%

Cc1ccc(Nc2ncnc3ccccc23)cc1 [3i, 4-(p-Tolyl)aminoquinazoline]
inhibition at 50 µM (stock) [2]: 7.1%
inhibition at 10 µM [3]: < 50%
inhibition at 10 µM [4]: < 50%

CCc1nc(Nc2ccccc2)c2ccccc2n1 [3c, 2-Ethyl-4-anilinoquinazoline]
IC50 ([3]; Ellman method): 5.34 ± 0.15 µM
inhibition at 10 µM [4]: < 50%

Cc1nc(Nc2cccc(C)c2C)c2ccccc2n1 [3m, 2-methyl-4-(2,3-Dimethylphenyl)aminoquinazoline]
inhibition at 50 µM (stock) [2]: 15.8%
inhibition at 10 µM [3]: < 50%
inhibition at 10 µM [4]: < 50%

CCc1nc(Nc2ccc(OC)c(OC)c2)c2ccccc2n1 [3h, 2-ethyl-4-(3,4-Dimethoxyphenyl)aminoquinazoline]
ORAC [1]: 5.73 TE and 5.73 ± 0.39 TE
inhibition at 50 µM (stock) [2]: 36.7%
eqBuChE inhibition (in words) ([3]; Ellman method): inactive
inhibition at 10 µM [3]: < 50%
IC50 [4]: 6.67 µM and 6.61 µM

COc1cc(/C=C/C(=O)O)ccc1O [ferulic acid]
ORAC [5]: 3.7 TE

COc1ccc(Nc2ncnc3ccccc23)cc1OC [3g, 4-(3,4-Dimethoxyphenyl)aminoquinazoline]
ORAC [1]: 5.46 TE and 5.46 ± 0.11 TE
inhibition at 50 µM (stock) [2]: 14.7%
inhibition at 10 µM [3]: < 50%
inhibition at 10 µM [4]: < 50%

COc1cc(Nc2nc(C)nc3ccccc23)cc(OC)c1 [3e, 2-methyl-4-(3,5-Dimethoxyphenyl)aminoquinazoline]
ORAC [1]: 1.81 ± 0.19 TE
Inhibition of Aβ1–42 self-aggregation (in words) [2]: did not display measurable activity
IC50 ([3]; Ellman method): 9.43 ± 1.13 µM
IC50 [4]: 6.04 ± 1.05 µM

O=[N+]([O-])c1ccc(Nc2ncnc3ccccc23)cc1 [3n, 4-(4-Nitrophenyl)aminoquinazoline]
inhibition at 50 µM (stock) [2]: 6.57%
inhibition at 10 µM [3]: < 50%
inhibition at 10 µM [4]: < 50%

Cc1cccc(Nc2ncnc3ccccc23)c1C [3l, 4-(2,3-Dimethylphenyl)aminoquinazoline]
ORAC [1]: 0.32 ± 0.05 TE
inhibition at 50 µM (stock) [2]: 8.74%
inhibition at 10 µM [3]: < 50%
inhibition at 10 µM [4]: < 50%

Cc1nc(Nc2ccccc2)c2ccccc2n1 [3b, 2-Methyl-4-anilinoquinazoline]
ORAC [1]: 0.51 ± 0.02 TE
Inhibition of Aβ1–42 self-aggregation (in words) [2]: did not display measurable activity
inhibition at 10 µM [3]: < 50%
inhibition at 10 µM [4]: < 50%

CCc1nc(Nc2ccc(Cl)cc2)c2ccccc2n1 [3q, 2-ethyl-4-(4-Chlorophenyl)aminoquinazoline]
inhibition at 50 µM (stock) [2]: 1.45%
IC50 ([3]; Ellman method): 8.64 ± 0.3 µM
inhibition at 10 µM [4]: < 50%

Cc1ccc(Nc2nc(C)nc3ccccc23)cc1 [3j, 2-Methyl-4-(p-tolyl)aminoquinazoline]
ORAC [1]: 0.75 ± 0.08 TE
inhibition at 50 µM (stock) [2]: 21.2%
inhibition at 10 µM [3]: < 50%
inhibition at 10 µM [4]: < 50%

Cc1nc(Nc2ccc([N+](=O)[O-])cc2)c2ccccc2n1 [3o, 2-Methyl-4-(4-nitrophenyl)aminoquinazoline]
ORAC [1]: 0.36 ± 0.01 TE
inhibition at 50 µM (stock) [2]: 13.7%
inhibition at 10 µM [3]: < 50%
inhibition at 10 µM [4]: < 50%

COc1cc(/C=C/C(=O)CC(=O)/C=C/c2ccc(O)c(OC)c2)ccc1O [Curcumin, reference compound]
inhibition at 50 µM (stock) [2]: 58%

COc1cc(Nc2ncnc3ccccc23)cc(OC)c1 [3d, 4-(3,5-Dimethoxyphenyl)aminoquinazoline]
Inhibition of Aβ1–42 self-aggregation (in words) [2]: did not display measurable activity
inhibition at 10 µM [3]: < 50%
inhibition at 10 µM [4]: < 50%

CCc1nc(Nc2ccc(C)cc2)c2ccccc2n1 [3k, 2-Ethyl-4-(p-tolyl)aminoquinazoline]
ORAC [1]: 0.58 ± 0.04 TE
inhibition at 50 µM (stock) [2]: 9.4%
inhibition at 10 µM [3]: < 50%
inhibition at 10 µM [4]: < 50%
